Measurements taken from ChEMBL document CHEMBL1121776, “Folate antagonists. 18. Synthesis and antimalarial effects of N6-(arylmethyl)-N6-methyl-2,4,6-pteridinetriamines and related N6,N6-disubstituted 2,4,6-pteridinetriamines” (1981).
Values after ≈ are worked out from the molar mass of the structure shown.

Columns and labels:
Format in all cases: functional
Mus musculus [1] = test: Parenteral antimalarial effect against Plasmodium berghei in mice (Mus musculus) at a dose of 80 mg/kg subcutaneously; details: route subcutaneous
Mus musculus [2] = test: Parenteral antimalarial effect against Plasmodium berghei in mice (Mus musculus) at a dose of 20sc mg/kg
Mus musculus [3] = test: Parenteral antimalarial effect against Plasmodium berghei in mice (Mus musculus) at a dose of 320 subcutaneous mg/kg
Mus musculus [4] = test: Parenteral antimalarial effect against Plasmodium berghei in mice (Mus musculus) at a dose of 160 mg/kg subcutaneously; Number of mice (Mus musculus) surviving at 60 days post infection and cured 3/5; details: route subcutaneous
Mus musculus [5] = test: Parenteral antimalarial effect against Plasmodium berghei in mice (Mus musculus) at a dose of 80 mg/kg subcutaneously; Number of mice (Mus musculus) surviving at 60 days post infection and cured 2/5; details: route subcutaneous
Mus musculus [6] = test: Parenteral antimalarial effect against Plasmodium berghei in mice (Mus musculus) at a dose of 10sc mg/kg
Mus musculus [7] = test: Parenteral antimalarial effect against Plasmodium berghei in mice (Mus musculus) at a dose of 320 mg/kg subcutaneously; Number of mice (Mus musculus) surviving at 60 days post infection and cured 3/5; details: route subcutaneous
Mus musculus [8] = test: Parenteral antimalarial effect against Plasmodium berghei in mice (Mus musculus) at a dose of 40 mg/kg subcutaneously; details: route subcutaneous
Escherichia coli [9] = test: In vitro antibacterial effect against E. c. Vogel by using gradient plate test
Mus musculus [10] = test: Parenteral antimalarial effect against Plasmodium berghei in mice (Mus musculus) at a dose of 160 subcutaneously mg/kg
Mus musculus [11] = test: Parenteral antimalarial effect against Plasmodium berghei in mice (Mus musculus) at a dose of 640 subcutaneously mg/kg
[12] = system: Mycobacterium tuberculosis; test: In vitro antibacterial effect against Mycobacterium tuberculosis H37Rv by using gradient plate test
Pseudomonas aeruginosa [13] = test: In vitro antibacterial effect against Pseudomonas aeruginosa 28 by using gradient plate test
Shigella sonnei [14] = test: In vitro antibacterial effect against Shigella sonnei C-10 by using gradient plate test
Staphylococcus aureus [15] = test: In vitro antibacterial effect against Staphylococcus aureus S18713 by using gradient plate test
Enterococcus faecalis [16] = test: In vitro antibacterial effect against Streptococcus faecalis MGH-2
Staphylococcus aureus [17] = test: In vitro antibacterial effect against Staphylococcus aureus UC-76 by using gradient plate test
Escherichia coli [18] = test: In vitro antibacterial effect against Escherichia coli Vogel by using gradient plate test
Pseudomonas aeruginosa [19] = test: In vitro antibacterial effect against P.a 28 by using gradient plate test
Shigella sonnei [20] = test: In vitro antibacterial effect against S. s C-10 by using gradient plate test
Staphylococcus aureus [21] = test: In vitro antibacterial effect against S. a. S18713 by using gradient plate test
Staphylococcus aureus [22] = test: In vitro antibacterial effect against S. a. UC-76 by using gradient plate test
Enterococcus faecalis [23] = test: In vitro antibacterial effect against S. f MGH-2
Mus musculus [24] = test: Parenteral antimalarial effect against Plasmodium berghei in mice (Mus musculus) at a dose of 160 mg/kg subcutaneously; Number of mice (Mus musculus) surviving at 60 days post infection and cured 10/10; details: route subcutaneous
Mus musculus [25] = test: Parenteral antimalarial effect against Plasmodium berghei in mice (Mus musculus) at a dose of 80 mg/kg subcutaneously; Number of mice (Mus musculus) surviving at 60 days post infection and cured 10/10; details: route subcutaneous
Mus musculus [26] = test: Parenteral antimalarial effect against Plasmodium berghei in mice (Mus musculus) at a dose of 20 mg/kg subcutaneously; Number of mice (Mus musculus) surviving at 60 days post infection and cured 8/15; details: route subcutaneous
Mus musculus [27] = test: Parenteral antimalarial effect against Plasmodium berghei in mice (Mus musculus) at a dose of 640 mg/kg subcutaneously; Number of mice (Mus musculus) surviving at 60 days post infection and cured 10/10; details: route subcutaneous
Mus musculus [28] = test: Parenteral antimalarial effect against Plasmodium berghei in mice (Mus musculus) at a dose of 160 mg/kg subcutaneously; Number of mice (Mus musculus) surviving at 60 days post infection and cured 8/10; details: route subcutaneous
Mus musculus [29] = test: Parenteral antimalarial effect against Plasmodium berghei in mice (Mus musculus) at a dose of 160 mg/kg subcutaneously; Number of mice (Mus musculus) surviving at 60 days post infection and cured 5/5; details: route subcutaneous
Mus musculus [30] = test: Parenteral antimalarial effect against Plasmodium berghei in mice (Mus musculus) at a dose of 80 subcutaneously mg/kg; Number of mice (Mus musculus) surviving at 60 days post infection and cured 7/10
Mus musculus [31] = test: Parenteral antimalarial effect against Plasmodium berghei in mice (Mus musculus) at a dose of 20 mg/kg subcutaneously; Number of mice (Mus musculus) surviving at 60 days post infection and cured 4/10; details: route subcutaneous
Mus musculus [32] = test: Parenteral antimalarial effect against Plasmodium berghei in mice (Mus musculus) at a dose of 40sc mg/kg; Number of mice (Mus musculus) surviving at 60 days post infection and cured 3/5
Mus musculus [33] = test: Parenteral antimalarial effect against Plasmodium berghei in mice (Mus musculus) at a dose of 320 subcutaneous mg/kg; Number of mice (Mus musculus) surviving at 60 days post infection and cured 5/5
Mus musculus [34] = test: Parenteral antimalarial effect against Plasmodium berghei in mice (Mus musculus) at a dose of 20 mg/kg subcutaneously; Number of mice (Mus musculus) surviving at 60 days post infection and cured 2/5; details: route subcutaneous

| SMILES | MST (Mus musculus [1]) [days] | MST (Mus musculus [2]) [days] | MST (Mus musculus [3]) [days] | MST (Mus musculus [6]) [days] | MST (Mus musculus [8]) [days] | MST (Mus musculus [10]) [days] | MST (Mus musculus [11]) [days] | MIC [12] [µg/mL] | MIC (Pseudomonas aeruginosa [13]) [µg/mL] | MIC (Shigella sonnei [14]) [µg/mL] | MIC (Staphylococcus aureus [15]) [µg/mL] | MIC (Enterococcus faecalis [16]) [µg/mL] | MIC (Staphylococcus aureus [17]) [µg/mL] | MIC (Escherichia coli [18]) [µg/mL] | further results |
| --- | --- | --- | --- | --- | --- | --- | --- | --- | --- | --- | --- | --- | --- | --- | --- |
| COc1ccc2ccccc2c1CN(C)c1cnc2nc(N)nc(N)c2n1 | 0.2 | 0.2 | 0.2 |  |  |  |  |  |  |  |  |  |  |  |  |
| Nc1nc(N)c2nc(N3CCCC3c3ccc(Cl)cc3)cnc2n1 (stereo not drawn) |  | 10.1 |  | 7.9 | 12.1 |  |  |  |  |  |  |  |  |  | MST (Mus musculus [4]): 3 days; MST (Mus musculus [5]): 2 days; MST (Mus musculus [7]): 3 days |
| CN(Cc1ccccc1)c1cnc2nc(N)nc(N)c2n1 |  |  |  |  | 0.1 | 0.1 | 0.3 | 10 (≈ 35.5 µM) | > 25 | > 25 | < 0.25 | < 0.25 | < 0.25 |  | MIC (Escherichia coli [9]): 10 µg/mL (≈ 35.5 µM) |
| Nc1nc(N)c2nc(N3CCC(c4ccccc4)CC3)cnc2n1 |  |  |  |  | 0.1 | 0.1 | 0.1 | 10 (≈ 31.1 µM) | > 25 | > 25 | > 0.25 | < 0.25 | > 0.25 | > 25 |  |
| CN(CCc1ccccc1)c1cnc2nc(N)nc(N)c2n1 | 0.1 | 0.1 | 1.7 |  | 0.1 | 0.7 | 3.9 | > 25 | > 25 | > 25 | < 0.25 | < 0.25 | < 0.25 | > 25 |  |
| COc1ccc(CN(C)c2cnc3nc(N)nc(N)c3n2)c2ccccc12 | 5 | 6.5 | 5 |  | 5 | 5 | 5 | 2.5 (≈ 6.92 µM) | > 25 | > 25 | < 0.25 | < 0.25 | < 0.25 | > 25 |  |
| CN(Cc1cc2ccccc2c2ccccc12)c1cnc2nc(N)nc(N)c2n1 |  |  |  |  |  |  |  |  |  |  |  |  |  |  | MIC (Escherichia coli [9]): > 25 µg/mL; MIC (Pseudomonas aeruginosa [19]): > 25 µg/mL; MIC (Shigella sonnei [20]): > 25 µg/mL; MIC (Staphylococcus aureus [21]): < 0.25 µg/mL; MIC (Staphylococcus aureus [22]): < 0.25 µg/mL; MIC (Enterococcus faecalis [23]): < 0.25 µg/mL |
| Nc1nc(N)c2nc(N3CCc4ccccc4C3)cnc2n1 |  |  |  |  | 0.1 | 0.3 | 0.5 |  |  |  |  |  |  |  |  |
| CN(Cc1ccc(Cl)c(Cl)c1)c1ccc2nc(N)nc(N)c2c1 |  |  |  | 8.7 |  |  |  |  |  |  |  |  |  |  | MST (Mus musculus [24]): 10 days; MST (Mus musculus [25]): 10 days; MST (Mus musculus [26]): 8 days |
| CN(Cc1ccc(F)cc1)c1cnc2nc(N)nc(N)c2n1 |  | 8.5 |  |  |  |  |  | 2.5 (≈ 8.35 µM) | > 25 | > 25 | < 0.25 | < 0.25 | < 0.25 |  | MIC (Escherichia coli [9]): > 25 µg/mL; MST (Mus musculus [27]): 10 days; MST (Mus musculus [28]): 8 days |
| CN(Cc1ccc(Cl)cc1)c1cnc2nc(N)nc(N)c2n1 |  |  |  | 4.3 |  |  |  |  |  |  |  |  |  |  | MST (Mus musculus [29]): 5 days; MST (Mus musculus [30]): 7 days; MST (Mus musculus [31]): 4 days; MST (Mus musculus [32]): 3 days |
| CN(Cc1ccc2c(c1)Cc1ccccc1-2)c1cnc2nc(N)nc(N)c2n1 | 2 | 6.3 | 5 | 3.5 | 8.1 | 5 |  | 5 (≈ 13.5 µM) | > 25 | > 25 | < 0.25 | < 0.25 | < 0.25 | > 25 |  |
| CN(Cc1c2ccccc2cc2ccccc12)c1cnc2nc(N)nc(N)c2n1 | 0.1 | 0.1 | 1.3 |  |  |  |  |  |  |  |  |  |  |  |  |
| CN(Cc1cccc2ccccc12)c1cnc2nc(N)nc(N)c2n1 |  | 5 |  | 4 |  |  |  | > 25 | > 25 | > 25 | < 0.25 | < 0.25 | < 0.25 | > 25 | MST (Mus musculus [24]): 10 days; MST (Mus musculus [27]): 10 days; MST (Mus musculus [33]): 5 days |
| Nc1nc(N)c2nc(N3CCCCC3)cnc2n1 | 0.3 | 0.3 | 0.9 |  |  |  |  |  |  |  |  |  |  |  |  |
| CC1(C)N=C(N)N=C(N)N1c1ccc(Cl)cc1.Cl [CHLORCYCLOGUANIL HYDROCHLORIDE] | 2 | 7.9 | 3 |  | 1 | 5 | 5 |  |  |  |  |  |  |  |  |
| CN(Cc1cccc(C(F)(F)F)c1)c1cnc2nc(N)nc(N)c2n1 |  | 12.2 |  | 8.8 | 15.4 |  |  | 10 (≈ 28.6 µM) | > 25 | > 25 | < 0.25 | < 0.25 | < 0.25 | > 25 | MST (Mus musculus [29]): 5 days |
| CN(Cc1ccc2ccccc2c1)c1cnc2nc(N)nc(N)c2n1 |  |  |  | 5.9 |  |  |  | > 25 | > 25 | > 25 | < 0.25 | < 0.25 | < 0.25 | > 25 | MST (Mus musculus [24]): 10 days; MST (Mus musculus [27]): 10 days; MST (Mus musculus [34]): 2 days; MST (Mus musculus [33]): 5 days |
